Results published in ChEMBL document CHEMBL1697781, “Assessment of the health effects of chemicals in humans: II. Construction of an adverse effects database for QSAR modeling” (Curr Drug Discov Technol, 2004).

How the values were obtained:
Conditions in all cases: human; call rule not given here
Hepatotoxicity [1] = assay: FDA HLAED, serum glutamic pyruvic transaminase (SGPT) increase
Hepatotoxicity [2] = assay: FDA HLAED, lactate dehydrogenase (LDH) increase
Hepatotoxicity [3] = assay: FDA HLAED, liver enzyme composite activity
Hepatotoxicity [4] = assay: FDA HLAED, serum glutamic oxaloacetic transaminase (SGOT) increase
Hepatotoxicity [5] = assay: FDA HLAED, alkaline phosphatase increase
Hepatotoxicity [6] = assay: FDA HLAED, gamma-glutamyl transferase (GGT) increase
Wherever GGT Increase - Index Value is given: reference of the scale not given here.
Wherever LDH Increase - Index Value is given: reference of the scale not given here.

| Structure (SMILES) | SGPT Increase - Activity Score (Hepatotoxicity [1]) | SGPT Increase - Index Value (Hepatotoxicity [1]) | SGPT Increase - Number of Reports (Hepatotoxicity [1]) | LDH Increase - Activity Score (Hepatotoxicity [2]) | LDH Increase - Index Value (Hepatotoxicity [2]) | LDH Increase - Number of Reports (Hepatotoxicity [2]) | Composite Activity - Active (Hepatotoxicity [3]) | Composite Activity - Marginal (Hepatotoxicity [3]) | Composite Activity - Score (Hepatotoxicity [3]) | SGOT Increase - Activity Score (Hepatotoxicity [4]) | SGOT Increase - Index Value (Hepatotoxicity [4]) | SGOT Increase - Number of Reports (Hepatotoxicity [4]) | Alkaline Phosphatase Increase - Activity Score (Hepatotoxicity [5]) | Alkaline Phosphatase Increase - Index Value (Hepatotoxicity [5]) | Alkaline Phosphatase Increase - Number of Reports (Hepatotoxicity [5]) | GGT Increase - Activity Score (Hepatotoxicity [6]) | GGT Increase - Index Value (Hepatotoxicity [6]) | GGT Increase - Number of Reports (Hepatotoxicity [6]) | also measured |
| --- | --- | --- | --- | --- | --- | --- | --- | --- | --- | --- | --- | --- | --- | --- | --- | --- | --- | --- | --- |
| CC1(C)O[C@@H]2C[C@H]3[C@@H]4C[C@H](F)C5=CC(=O)C=C[C@]5(C)[C@H]4[C@@H](O)C[C@]3(C)[C@]2(C(=O)CO)O1 [FLUNISOLIDE] | Inactive | 0 | < 4 | Inactive | 0 | < 4 | 0 | 0 | Inactive | Inactive | 0 | < 4 | Inactive | 0 | < 4 | Inactive | 0 | < 4 | – |
| CCOC(=O)Nc1ccc2c(c1)N(C(=O)CCN1CCOCC1)c1ccccc1S2 [MORICIZINE] | Inactive | 3.4 | < 4 | Inactive | 3.4 | < 4 | 1 | 0 | Inactive | Active | 13.7 | >= 4 | Inactive | 3.4 | < 4 | Inactive | 0 | < 4 | – |
| OCc1cc(C(O)CNCCCCCCOCCCCc2ccccc2)ccc1O (configuration not stated) [SALMETEROL] | Inactive | 0.1 | < 4 | Inactive | 0 | < 4 | 0 | 0 | Inactive | Inactive | 0.1 | < 4 | Inactive | 0 | < 4 | Inactive | 0.1 | < 4 | – |
| COC(=O)C1=C(C)NC(C)=C(C(=O)OC)C1c1ccccc1[N+](=O)[O-] [NIFEDIPINE] | Inactive | 0.4 | >= 4 | Inactive | 0.1 | < 4 | 0 | 0 | Inactive | Inactive | 0.6 | >= 4 | Inactive | 0.3 | < 4 | Inactive | 0 | < 4 | – |
| CCOC(=O)[C@H](CCc1ccccc1)N[C@@H](C)C(=O)N1Cc2ccccc2C[C@H]1C(=O)O | Inactive | 1.2 | >= 4 | Inactive | 0.4 | < 4 | 0 | 0 | Inactive | Inactive | 1.1 | >= 4 | Inactive | 1.4 | >= 4 | Inactive | 1.4 | >= 4 | – |
| CN1C(=O)OC(C)(C)C1=O [TRIMETHADIONE] | Marginally Active | No Shipping Units | >= 4 | Marginally Active | No Shipping Units | >= 4 | 2 | 3 | Active | Active | No Shipping Units | >= 4 | Active | No Shipping Units | >= 4 | Marginally Active | No Shipping Units | >= 4 | – |
| CCc1c2c(nc3ccc(OC(=O)N4CCC(N5CCCCC5)CC4)cc13)-c1cc3c(c(=O)n1C2)COC(=O)[C@]3(O)CC [IRINOTECAN] | Inactive | 6.1 | < 4 | Inactive | 4.1 | < 4 | 0 | 0 | Inactive | Inactive | 6.1 | < 4 | Inactive | 4.1 | < 4 | Inactive | 2 | < 4 | – |
| O=c1n(CCCN2CCN(c3cccc(Cl)c3)CC2)nc2ccccn12 [TRAZODONE] | Inactive | 0 | < 4 | Inactive | 0.3 | < 4 | 0 | 0 | Inactive | Inactive | 0.3 | < 4 | Inactive | 0.2 | < 4 | Inactive | 0 | < 4 | – |
| NCCCC(O)(P(=O)(O)O)P(=O)(O)O [ALENDRONIC ACID] | Inactive | 1.4 | >= 4 | Inactive | 1.5 | >= 4 | – | – | – | Inactive | 1.4 | >= 4 | Inactive | 2.5 | >= 4 | Inactive | 0.8 | >= 4 | Composite Activity - Active (Hepatotoxicity [3]; Liver): 0; Composite Activity - Marginal (Hepatotoxicity [3]; Liver): 0; Composite Activity - Score (Hepatotoxicity [3]; Liver): Inactive |
